In ChEMBL document CHEMBL4673349, “Trichodestruxins A-D: Cytotoxic Cyclodepsipeptides from the Endophytic Fungus Trichoderma harzianum” (J Nat Prod, 2020):
Structures can show the parent of a compound that is named as a salt.

How the values were obtained:
Type in all cases: functional, cell-based
[1] = tested on: P388; experiment: Cytotoxicity against mouse p388 cells assessed as reduction in cell viability after 72 hrs by MTT assay; settings: P388, 72 h
[2] = tested on: HT-29; experiment: Cytotoxicity against human HT-29 cells assessed as reduction in cell viability after 72 hrs by MTT assay; settings: HT-29, 72 h
[3] = tested on: A549; experiment: Cytotoxicity against human A549 cells assessed as reduction in cell viability after 72 hrs by MTT assay; settings: A549, 72 h

| SMILES | IC50 [1] [µM] | IC50 [2] [µM] | IC50 [3] [µM] |
| --- | --- | --- | --- |
| C=CC[C@H]1OC(=O)CCNC(=O)[C@H](C)N(C)C(=O)[C@H](C(C)C)N(C)C(=O)[C@H](C(C)C)NC(=O)[C@@H]2[C@@H](C)CCN2C1=O | 17 | 7.8 | 15.6 |
| CC(C)[C@@H]1NC(=O)[C@@H]2[C@@H](C)CCN2C(=O)[C@@H](C[C@@H](O)CO)OC(=O)CCNC(=O)[C@H](C)N(C)C(=O)[C@H](C(C)C)N(C)C1=O | 19.1 | 16.7 | 8.8 |
| CC(C)C[C@H]1OC(=O)CCNC(=O)[C@H](C)NC(=O)[C@H](C(C)C)N(C)C(=O)[C@H](C(C)C)NC(=O)[C@@H]2[C@@H](C)CCN2C1=O | > 20 | > 20 | 17.5 |
| CC(C)C[C@H]1OC(=O)CCNC(=O)[C@H](C)N(C)C(=O)[C@H](C(C)C)N(C)C(=O)[C@H](C(C)C)NC(=O)[C@@H]2[C@@H](C)CCN2C1=O | 8.4 | 3.4 | 10.3 |
| COc1cccc2c1C(=O)c1c(O)c3c(c(O)c1C2=O)C[C@@](O)(C(=O)CO)C[C@@H]3O[C@H]1C[C@H](N)[C@H](O)[C@H](C)O1 [DOXORUBICIN HYDROCHLORIDE] | 0.3 | 1.8 | 2.3 |
